Results: patent US20260062388A1, “POLYMORPHIC FORM OF NEPICASTAT ACID ADDITION SALT, PREPARATION METHOD THEREFOR AND USE THEREOF” (Jiangsu Yahong Meditech Co., Ltd., priority 2022, published 2026)
In brackets after ≈: the same amount, converted by molar mass.

Tests used:
Type in all cases: physicochemical
[1] = Approximate solubility tests on crystal forms of acid addition salts of nepicastat in water (room temperature)
[2] = Stability tests on crystal forms of acid addition salts: high-temperature test and accelerated test, 4 weeks; details: for stability under accelerated conditions: 40° C.±2° C./75% RH±5% RH; for stability under high temperature conditions: 60±2° C.
[3] = Approximate solubility test on crystal forms of hydrochloride salt of nepicastat at room temperature; details: purified water
[4] = Dynamic vapor sorption (DVS) hygroscopicity
Experimental: DVS curves are acquired on DVS Intrinsic from SMS (Surface Measurement Systems). • Testing temperature: 25° C. • Sample amount: 10-20 mg • dm/dt: 0.002%/min; • RH range: 0% RH-95% RH-0% RH • RH gradient: 10%

[5] = Stability studies under relatively harsh conditions (40° C., 40° C./75% RH, 60° C., 60° C./75% RH) on crystal forms I and II
[6] = Competitive experiments of crystal forms I and II by adding crystal seeds (different water activities); details: room temperature, 3 days
Experimental: To confirm stability of the crystal forms at room temperature, the following competitive experiments were conducted for the crystal forms I and II:
The suspensions were stirred for 24 hours at room temperature, and all systems had solid residues. All systems were centrifuged and the supernatants were taken. […] The resulting suspensions were sonicated for 1 minute, stirred for 3 days at room temperature, and sampled to detect the crystal form.

[7] = Approximate solubility test of the free base of nepicastat; details: for solubility: thermodynamic from solid, approximate solubility
Experimental: In order to select a suitable method for salt form screening, an approximate solubility test was conducted on the compound. The test method was as follows: about 4 mg of the free base of nepicastat was weighed, an appropriate volume of a solvent was added gradually thereto and shaken to observe whether the free base was dissolved, and the volumes of the solvent were recorded, including the volume that enabled complete dissolution and the previous volume of the solvent that was not able to completely dissolve the free base. For poor solubility, the total amount of the solvent added was no more than 4 mL. The approximate solubility thereof was calculated.

maleate salt of nepicastat [crystal form I of maleate salt]
Approximate solubility ([1]; in purified water, at room temperature, calculated by the salt): 1.8~3.6 mg/mL
solubility in purified water compared with other candidate salt forms ([1]; purified water, room temperature): slightly higher than that of other candidate salt forms
stability under accelerated conditions [2]: stable
stability under high temperature conditions [2]: stable

NCc1c[nH]c(=S)n1[C@H]1CCc2c(F)cc(F)cc2C1.O=P(O)(O)O [crystal form I of phosphate salt, phosphate salt of nepicastat]
stability under accelerated conditions [2]: stable
stability under high temperature conditions [2]: the impurities slightly increased

Cl.NCc1c[nH]c(=S)n1[C@H]1CCc2c(F)cc(F)cc2C1 [hydrochloride salt of nepicastat]
solubility in purified water [3]: 7400 µg/mL

NCc1c[nH]c(=S)n1[C@H]1CCc2c(F)cc(F)cc2C1.O=C(O)/C=C/C(=O)O [crystal form I of fumarate salt, fumarate salt of nepicastat]
stability under accelerated conditions [2]: stable
stability under high temperature conditions [2]: the impurities increased

Cl.NCc1c[nH]c(=S)n1[C@H]1CCc2c(F)cc(F)cc2C1 [crystal form II of hydrochloride salt, hydrochloride salt of nepicastat]
hygroscopicity of the sample ([4]; DVS, 0% RH to 80% RH): slight hygroscopicity
weight gain by hygroscopicity ([4]; DVS, from 0% RH to 80% RH, 25° C.): about 0.453%
crystal form before and after the DVS test ([4]; XRPD before and after DVS): remained unchanged
crystal form stability (XRPD pattern) ([5]; 40° C.): converted into the crystal form III
crystal form stability (XRPD pattern) ([5]; 40° C./75% RH, 15 days): the crystal form did not change
crystal form stability (XRPD pattern) ([5]; 60° C., 15 days): converted into the crystal form III
crystal form stability (XRPD pattern) ([5]; 60° C./75% RH, 15 days): the crystal form did not change
stability in competitive experiment ([6]; ethanol-water mixed solutions with lower water activity (0.291-0.750)): could exist stably
stability in competitive experiment ([6]; purified water): not as good as that of the crystal form I

NCc1c[nH]c(=S)n1[C@H]1CCc2c(F)cc(F)cc2C1.NCc1c[nH]c(=S)n1[C@H]1CCc2c(F)cc(F)cc2C1.O=S(=O)(O)O [crystal form II of sulfate salt (1:0.5), sulfate salt of nepicastat]
stability under accelerated conditions [2]: stable
stability under high temperature conditions [2]: the impurities increased

NCc1c[nH]c(=S)n1[C@H]1CCc2c(F)cc(F)cc2C1 [free base of nepicastat, Nepicastat]
approximate solubility (qualitative) ([7]; in dichloromethane:methanol (1:1, V:V), methanol, acetone and ethanol): higher solubility
solubility ([7]; organic solvent or mixture, solvent 2-Methyltetrahydrofuran): < 1000 µg/mL
solubility ([7]; organic solvent or mixture, solvent Acetone): 4000 to 5000 µg/mL (≈ 13.5 to 16.9 mM)
solubility ([7]; organic solvent or mixture, solvent Dichloromethane): < 1000 µg/mL
solubility ([7]; organic solvent or mixture, solvent Dichloromethane:methanol (1:1)): 19700 to 39300 µg/mL (≈ 66.7 to 133 mM)
solubility ([7]; organic solvent or mixture, solvent Ethanol): 2900 to 3400 µg/mL (≈ 9.82 to 11.5 mM)
solubility ([7]; organic solvent or mixture, solvent Ethyl acetate): < 1000 µg/mL
solubility ([7]; organic solvent or mixture, solvent Methanol): 6900 to 10300 µg/mL (≈ 23.4 to 34.9 mM)
solubility ([7]; organic solvent or mixture, solvent Methyl tert-butyl ether): < 1000 µg/mL
solubility ([7]; organic solvent or mixture, solvent N-heptane): < 1000 µg/mL
solubility ([7]; solvent Purified water): < 1000 µg/mL

NCc1c[nH]c(=S)n1[C@H]1CCc2c(F)cc(F)cc2C1.O=S(=O)(O)O [crystal form III of sulfate salt (1:1), bisulfate salt of nepicastat]
stability under accelerated conditions [2]: stable
stability under high temperature conditions [2]: the impurities increased

NCc1c[nH]c(=S)n1C1CCc2c(F)cc(F)cc2C1.O=C(O)CC(O)(CC(=O)O)C(=O)O (stereo not shown) [crystal form I of citrate salt, citrate salt of nepicastat]
stability under accelerated conditions [2]: stable
stability under high temperature conditions [2]: the impurities increased

CS(=O)(=O)O.NCc1c[nH]c(=S)n1[C@H]1CCc2c(F)cc(F)cc2C1 [crystal form I of methanesulfonate salt, methanesulfonate salt of nepicastat]
stability under accelerated conditions [2]: stable
stability under high temperature conditions [2]: stable
